What was measured:
Conditions in all cases: incubation time: 72 h
CAL-85-1 [1] = test: normalised viability (% of control), CellTiter-Blue; higher = more viable cells (about 100 = DMSO control)
Protocol: (§1)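 DSRT, CellTiter-Blue viability, 72 h incubation. Signal is normalised to DMSO and benzethonium chloride controls. Value is the normalised response at dose 9.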

MDA-MB-453 [2] = test: as above
Protocol: as §1

CAL-148 [3] = test: as above
Protocol: as §1

HDQ-P1 [4] = test: as above
Protocol: as §1

DU-4475 [5] = test: as above
Protocol: as §1

CAL-51 [6] = test: as above
Protocol: as §1

CAL-85-1 [7] = test: normalised response (% of control), CellTiter-Glo; higher = more viable cells (100 = DMSO, 0 = benzethonium chloride kill control)
Protocol: (§2)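 DSRT, 72 h incubation, CellTox Green / CellTiter-Glo readout. Signal is normalised to DMSO and benzethonium chloride controls. Value is the normalised response at the highest dose.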

HCC1937 = test: as above
Protocol: as §2

BT-474 = test: as above
Protocol: as §2

MDA-MB-468 = test: as above
Protocol: as §2

MDA-MB-453 [8] = test: as above
Protocol: as §2

CAL-148 [9] = test: as above
Protocol: as §2

HDQ-P1 [10] = test: as above
Protocol: as §2

DU-4475 [11] = test: as above
Protocol: as §2

HCC1143 = test: as above
Protocol: as §2

MFM-223 = test: as above
Protocol: as §2

BT-549 = test: as above
Protocol: as §2

Hs578T = test: as above
Protocol: as §2

HCC1599 = test: as above
Protocol: as §2

CAL-120 = test: as above
Protocol: as §2

MCF-10A = test: as above
Protocol: as §2

SK-BR-3 = test: as above
Protocol: as §2

CAL-51 [12] = test: as above
Protocol: as §2

MDA-MB-436 = test: as above
Protocol: as §2

MDA-MB-231 = test: as above
Protocol: as §2

Row | Compound | normalised viability (CAL-85-1 [1]) | normalised viability (MDA-MB-453 [2]) | normalised viability (CAL-148 [3]) | normalised viability (HDQ-P1 [4]) | normalised viability (DU-4475 [5]) | normalised viability (CAL-51 [6]) | normalised response (CAL-85-1 [7]) | normalised response (HCC1937) | normalised response (BT-474) | normalised response (MDA-MB-468) | normalised response (MDA-MB-453 [8]) | normalised response (CAL-148 [9]) | normalised response (HDQ-P1 [10]) | normalised response (DU-4475 [11]) | normalised response (HCC1143) | normalised response (MFM-223) | normalised response (BT-549) | normalised response (Hs578T) | normalised response (HCC1599) | normalised response (CAL-120) | normalised response (MCF-10A) | normalised response (SK-BR-3) | normalised response (CAL-51 [12]) | normalised response (MDA-MB-436) | normalised response (MDA-MB-231)
1 | CC1(C)NC(=O)N(c2ccc([N+](=O)[O-])c(C(F)(F)F)c2)C1=O [Nilutamide] (10000 nM) | 90.7% | 106% | 99.8% | 136% | 97.4% | 89.4% | 99.7% | 94.3% | 103% | 111% | 102% | 112% | 95.1% | 97.4% | 101% | 104% | 93.9% | 104% | 106% | 103% | 104% | 108% | 76.1% | 114% | 105%
2 | CO[C@H]1/C=C\C=C(/C)C(=O)NC2=CC(=O)C(NCCN(C)C)=C(C[C@@H](C)C[C@H](OC)[C@H](O)[C@@H](C)/C=C(\C)[C@@H]1OC(N)=O)C2=O [Alvespimycin] (1000 nM) | 18.6% | 3.62% | 4.23% | 29.6% | -0.26% | 6.39% | 18.1% | 21.6% | 28% | 34.2% | 28.1% | 26.3% | 22.4% | 0.05% | 33.1% | 39.2% | 39.5% | 35.4% | 58.8% | 47.8% | 15.4% | 36% | 16.2% | 44.9% | 19%
3 | Cc1ccc(C(=O)Nc2ccc(CN3CCN(C)CC3)c(C(F)(F)F)c2)cc1C#Cc1cnc2cccnn12 [Ponatinib] (1000 nM) | 50.1% | 38.4% | 77.5% | 21.9% | 50.2% | 42% | 58% | 60.6% | 30.6% | 69.2% | 77.3% | 85.4% | 36.5% | 77.4% | 86% | 43.7% | 36% | 53.9% | 108% | 41.2% | 34.4% | 68.3% | 47% | 64.7% | 15.5%
4 | N[C@@H](CSC(c1ccccc1)(c1ccccc1)c1ccccc1)C(=O)O [S-trityl-L-cysteine] (40000 nM) | 87.5% | 83.2% | 114% | 65% | 92.2% | 87% | 101% | 93.5% | 89.6% | 104% | 86.2% | 100% | 102% | 92.3% | 92.8% | 92% | 106% | 89.6% | 103% | 101% | 104% | 99% | 123% | 95.3% | 91.1%
5 | CNCc1ccc(-c2[nH]c3cc(F)cc4c3c2CCNC4=O)cc1 [Rucaparib] (10000 nM) | 45.8% | 32.1% | 37.5% | 106% | 46.2% | 40.5% | 93.7% | 79.7% | 80.9% | 68.9% | 117% | 71.2% | 85.3% | 74% | 94.5% | 91% | 81.8% | 93% | 82.2% | 97.8% | 82.8% | 67.7% | 93.3% | 85.7% | 75.7%
6 | Cn1c(Nc2ccc(C(F)(F)F)cc2)nc2cc(Oc3ccnc(-c4ncc(C(F)(F)F)[nH]4)c3)ccc21 [RAF265] (1000 nM) | 47.2% | 89.2% | 64.1% | 34% | 42.3% | 48% | 40.7% | 63.7% | 79.6% | 50.8% | 95.8% | 99.9% | 47.2% | 71.8% | 94.2% | 48% | 68.7% | 78.2% | 73.7% | 67.2% | 86.6% | 92.1% | 52.1% | 67.7% | 83.5%
7 | Cc1ccc(C(=O)N(CCCN)[C@@H](c2oc3cc(Cl)ccc3c(=O)c2Cc2ccccc2)C(C)C)cc1 (100 nM) |  |  |  |  |  |  | 97.8% | 95.5% | 95.6% | 101% | 91.6% | 88.9% | 104% | 92.8% | 96% | 97.2% | 99.6% | 100% | 97.5% | 103% | 96.8% | 91.9% | 72.3% | 88.3% | 93%

Reference: the supplement of paper PMC4862054
